Experiments:
Experiment in all cases: relative viability (nuclei count vs DMSO), 5 days (fraction); higher = more cells survive
KN-93 + Navitoclax = compound: CN(C/C=C/C1=CC=C(C=C1)Cl)CC2=CC=CC=C2N(CCO)S(=O)(=O)C3=CC=C(C=C3)OC [KN-93] + CC1(C)CCC(c2ccc(Cl)cc2)=C(CN2CCN(c3ccc(C(=O)NS(=O)(=O)c4ccc(N[C@H](CCN5CCOCC5)CSc5ccccc5)c(S(=O)(=O)C(F)(F)F)c4)cc3)CC2)C1 [Navitoclax] (partner 0.5 µM)
Summary of the method: (§1)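 Nuclei were stained with Hoechst during a one-step fixation (final 0.05% Triton X-100, 1% formaldehyde, 1 ug/ml Hoechst) carried out 5 days after dosing, then counted on 4× images. The cells, lung cancer lines in 1536-well plates, had been dosed by pin tool the day after seeding with one drug alone or a fixed anchor-drug dose plus five library-drug doses (not always all listed) in √10 steps. Relative viability is the nuclei count in treated wells divided by that in vehicle wells, and each value is the median of duplicate plates.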

KN-93 + Foretinib = compound: CN(C/C=C/C1=CC=C(C=C1)Cl)CC2=CC=CC=C2N(CCO)S(=O)(=O)C3=CC=C(C=C3)OC [KN-93] + COc1cc2c(Oc3ccc(NC(=O)C4(C(=O)Nc5ccc(F)cc5)CC4)cc3F)ccnc2cc1OCCCN1CCOCC1 [Foretinib] (partner 0.25 µM)
Summary of the method: as §1

KN-93 + OSI-027 = compound: CN(C/C=C/C1=CC=C(C=C1)Cl)CC2=CC=CC=C2N(CCO)S(=O)(=O)C3=CC=C(C=C3)OC [KN-93] + COc1cccc2cc(-c3nc([C@H]4CC[C@H](C(=O)O)CC4)n4ncnc(N)c34)[nH]c12 [OSI-027] (partner 0.5 µM)
Summary of the method: as §1

KN-93 + Tozasertib = compound: CN(C/C=C/C1=CC=C(C=C1)Cl)CC2=CC=CC=C2N(CCO)S(=O)(=O)C3=CC=C(C=C3)OC [KN-93] + Cc1cc(Nc2cc(N3CCN(C)CC3)nc(Sc3ccc(NC(=O)C4CC4)cc3)n2)n[nH]1 [Tozasertib] (partner 0.1 µM)
Summary of the method: as §1

KN-93 + Pemetrexed = compound: CN(C/C=C/C1=CC=C(C=C1)Cl)CC2=CC=CC=C2N(CCO)S(=O)(=O)C3=CC=C(C=C3)OC [KN-93] + Nc1nc2[nH]cc(CCc3ccc(C(=O)N[C@@H](CCC(=O)O)C(=O)O)cc3)c2c(=O)[nH]1 [Pemetrexed] (partner 0.2 µM)
Summary of the method: as §1

Cell Line	relative viability (KN-93 + Navitoclax; first compound 0.08 µM)	relative viability (KN-93 + Navitoclax; first compound 0.253 µM)	relative viability (KN-93 + Navitoclax; first compound 2.53 µM)	relative viability (KN-93 + Navitoclax; first compound 8 µM)	relative viability (KN-93 + Foretinib; first compound 0.08 µM)	relative viability (KN-93 + Foretinib; first compound 0.253 µM)	relative viability (KN-93 + Foretinib; first compound 2.53 µM)	relative viability (KN-93 + Foretinib; first compound 8 µM)	relative viability (KN-93 + OSI-027; first compound 0.08 µM)	relative viability (KN-93 + OSI-027; first compound 0.253 µM)	relative viability (KN-93 + OSI-027; first compound 2.53 µM)	relative viability (KN-93 + OSI-027; first compound 8 µM)	relative viability (KN-93 + Tozasertib; first compound 0.08 µM)	relative viability (KN-93 + Tozasertib; first compound 0.253 µM)	relative viability (KN-93 + Tozasertib; first compound 2.53 µM)	relative viability (KN-93 + Tozasertib; first compound 8 µM)	relative viability (KN-93 + Pemetrexed; first compound 0.08 µM)	relative viability (KN-93 + Pemetrexed; first compound 0.253 µM)	relative viability (KN-93 + Pemetrexed; first compound 2.53 µM)	relative viability (KN-93 + Pemetrexed; first compound 8 µM)
201T	1.23	1.21	1.19	1.07	1.06	0.711	1.08	0.566	0.789	0.558	0.884	0.373	0.916	0.99	0.819	0.508	0.327	0.315	0.32	0.323
A549	1.06	1.33	1.44	0.513	0.911	1.14	0.995	0.585												
A-427	0.93	0.843	0.991	0.664	1.06	1.11	1.04	0.807	0.507	0.621	0.462	0.265	0.206	0.193	0.172	0.165	1.05	1.01	0.941	0.776
ABC-1					0.956	1.17	0.873	0.314	0.455	0.294	0.509	0.257	0.158	0.157	0.217	0.192				
BEN		0.062	0.0593	0.0709	0.917	0.599	0.714	0.455	0.323	0.308	0.304	0.304	0.525	0.529	0.489	0.531	0.886	0.829	0.913	0.54
CAL-12T	1.2	1.19	1.53	1.23	1.01	1.27	1.09	0.565	0.718	0.59	0.657	0.434	0.299	0.354	0.324	0.176	1.08	1.25	0.93	1.01
COR-L23	0.877	1.02	1.37	0.626	0.907	1.08	1.14	0.654	0.748	1.02	0.798	0.353	0.185	0.205	0.177	0.156	0.196	0.205	0.204	0.2
COR-L 105	0.733	0.639	0.731	0.514	0.987	1.05	1.02	0.73	0.618	0.771	0.588	0.437	0.399	0.325	0.329	0.282	1.07	1.02	1.31	0.832
ChaGo-K-1	1.58	1.08	1	0.54	0.866	0.981	0.832	0.669	0.585	0.512	0.449	0.426	0.234	0.232	0.243	0.2	0.264	0.259	0.246	0.258
EKVX	0.824	0.742	1.13	0.305	0.849	0.758	0.911	0.22	0.536	0.75	0.743	0.552	0.378	0.48	0.369	0.301	0.382	0.346	0.454	0.244
EMC-BAC-2	0.845	1.32	1.37	1.05	0.962	1.05	0.938	0.752	0.373	0.355	0.389	0.337	0.24	0.276	0.274	0.274	0.452	0.484	0.497	0.437
EPLC-272H	0.945	1.27	1.18	0.849	0.621	0.762	0.573	0.389	0.218	0.295	0.297	0.219	0.234	0.213	0.317	0.227	0.422	0.274	0.285	0.211
H3255	0.56	0.511	0.55	0.124	0.986	0.902	0.864	0.807	0.615	0.515	0.619	0.431	0.539	0.864	0.82	0.433	0.558	0.54	0.544	0.484
HARA	0.983	1.22	1.02	0.687	0.918	1.37	0.887	0.532	0.427	0.457	0.413	0.138	0.125	0.104	0.111	0.11	0.292	0.29	0.282	0.247
HCC-15	0.539	0.718	0.794	0.579	0.914	1.12	1.11	0.807	0.558	0.722	0.636	0.527	0.284	0.523	0.312	0.101	0.218	0.209	0.21	0.215
HCC-44	0.852	0.892	0.951	0.752					0.547	0.482	0.555	0.391	0.912	0.809	0.863	0.526	0.652	0.615	0.667	0.678
HCC-78	0.699	0.833	0.778	0.375	0.564	0.475	0.579	0.525	0.388	0.315	0.387	0.339	0.392	0.369	0.369	0.382	0.816	1.02	0.911	0.935
HCC-366		1.35	1.1	0.907	0.909	1.02	0.796	0.379	0.758	0.696	0.894	0.235	0.0849	0.0834	0.111	0.0411	0.157	0.175	0.189	0.133

Cell Line	relative viability (KN-93 + Navitoclax; first compound 0.08 µM)	relative viability (KN-93 + Navitoclax; first compound 0.253 µM)	relative viability (KN-93 + Navitoclax; first compound 2.53 µM)	relative viability (KN-93 + Navitoclax; first compound 8 µM)	relative viability (KN-93 + Foretinib; first compound 0.08 µM)	relative viability (KN-93 + Foretinib; first compound 0.253 µM)	relative viability (KN-93 + Foretinib; first compound 2.53 µM)	relative viability (KN-93 + Foretinib; first compound 8 µM)	relative viability (KN-93 + OSI-027; first compound 0.08 µM)	relative viability (KN-93 + OSI-027; first compound 0.253 µM)	relative viability (KN-93 + OSI-027; first compound 2.53 µM)	relative viability (KN-93 + OSI-027; first compound 8 µM)	relative viability (KN-93 + Tozasertib; first compound 0.08 µM)	relative viability (KN-93 + Tozasertib; first compound 0.253 µM)	relative viability (KN-93 + Tozasertib; first compound 2.53 µM)	relative viability (KN-93 + Tozasertib; first compound 8 µM)	relative viability (KN-93 + Pemetrexed; first compound 0.08 µM)	relative viability (KN-93 + Pemetrexed; first compound 0.253 µM)	relative viability (KN-93 + Pemetrexed; first compound 2.53 µM)	relative viability (KN-93 + Pemetrexed; first compound 8 µM)
HCC-827	1.04	0.986	0.98	0.872	1.05	1.09	0.931	0.577	0.729	0.777	0.991	0.565	0.445	0.492	0.404	0.337	0.243	0.286	0.257	0.286
HOP-62	1.01	0.897	1.38	0.904	1.2	1.22	1.26	0.958	0.855	1.08	1.07	0.537	0.395	0.44	0.401	0.273	0.28	0.383	0.346	0.322
IA-LM	0.975	0.826	1.23	0.439		1.36	1.3	0.926												
LC-2-ad	0.425	0.414	0.364	0.129	0.992	1.01	0.915	0.699	0.874	0.964	0.842	0.707	0.444	0.393	0.483	0.389	0.272	0.272	0.298	0.295
LCLC-97TM1	0.287		0.527	0.238	0.955	0.978	0.895	0.74	0.461	0.634	0.561	0.353	0.254	0.229	0.226	0.194	0.199	0.165	0.179	0.145
LCLC-103H					0.901	1.01	0.799	0.536	0.446	0.455	0.356	0.309	0.427	0.501	0.434	0.376	0.455	0.443	0.515	0.475
LK-2	0.743	0.677	1.12	0.567	1.16	1.58	1.48	1.15	0.207	0.182	0.189	0.165	0.212	0.191	0.163	0.158	0.275	0.273	0.288	0.2
LOU-NH91	0.621	0.63	0.709	0.545	0.963	0.886	1.01	0.885	0.663	0.565	0.827	0.65	0.618	0.663	0.586	0.477	0.356	0.325	0.445	0.439
LU99A	0.86	0.787	0.763	0.609	0.884	0.896	0.817	0.676	0.327	0.273	0.27	0.275	0.239	0.287	0.246	0.212	0.183	0.183	0.189	0.222
NCI-H358					0.519	0.733	0.64	0.335	0.74	0.653	0.831	0.421	0.1	0.105	0.089	0.103	0.166	0.182	0.169	0.157
NCI-H522									0.824	0.746	0.801	0.558	0.551	0.536	0.566	0.511	1.02	0.987	1.29	0.779
NCI-H650					1.11	0.972	0.968	0.705	0.502	0.536	0.576	0.443	0.738	0.762	0.694	0.523	1.02	0.993	1.04	0.788
NCI-H661					0.942	1.13	0.976	0.481	0.693	0.741	0.606	0.273	0.365	0.355	0.342	0.36	0.89	1.15	0.753	0.504
NCI-H727	0.464	0.4	0.285	0.17	1.04	0.945	0.863	0.553	0.644	0.512	0.486	0.337	0.689	0.658	0.465	0.447				
NCI-H1563					0.918	0.878	0.858	0.659	0.841	0.789	0.745	0.566					0.759	0.822	0.799	0.597
NCI-H1792		0.705	0.75	0.492					0.527	0.651	0.768	0.664					0.605	0.909	0.971	0.513
SW 900					0.851	0.942	1.02	0.762	0.571	0.438	0.624	0.411	0.529	0.544	0.598	0.368	0.522	0.517	0.491	0.47
